Here are results for ten compounds from patent US20260356846A1, “STATIN DERIVATIVES AND METHODS OF USING THE SAME” (The General Hospital Corporation, priority 2023, published 2026).

pEC50: −log10 of the molar value. Where two headings read alike, the source gives them in different places.

The subject of assay [1] is STMN2 (TDP-mut (N352S) STMN2-NLuc SH-SY5Y cells). Description: STMN2 nanoluciferase assay in TDP-43 mutant SH-SY5Y cells (Table A: mut TDP-43; Table B: mut HD Luciferase). The class given is cell-based, human. The conditions noted are these: mutant TDP-43 cell line; for pEC50: Homo sapiens, SH-SY5Y. The method, then: (§1) Neuroblastoma cells (ATCC) were cultured in DMEM/F12 (Gibco) supplemented with 10% fetal-bovine serum (Omega) and 1% penicillin-streptomycin (Gibco) at 37 °C with 5% CO2. For knockdown experiments, cells were transfected with SMARTpool ON-TARGETplus siRNA or control siRNA pool (D001810-10) (GE Dharmacon) at a final concentration of 50 nM, for 96 h in two doses (0, 24 h), after complexing with Lipofectamin RNAiMAX (Invitrogen) in Opti-MEM (Gibco) for 10 min.
(§2) WT and TDP-mut (N352S) SH-SY5Y cells were edited using CRISPR-Cas9 to express Nanoluciferase at the C-terminus of both endogenous STMN2 alleles. A single guided RNA targeting STMN2 C-terminus was designed (Benchling webtool) and cloned into pSpCas9-2A-green fluorescent protein (GFP) plasmid (px458-Addgene) using the BbsI restriction site. The sequence for guided RNA targeting STMN2 was: […]. For the repair template, overlapping fragments of 800 bp STMN2 homology arms flanking Nanoluciferase (NLuc, Promega) were generated and ligated into pUC57 backbone. A 42 bp GS-linker was also included 5′ to NLuc to prevent steric hindrance of the reporter to the final STMN2 exon. Fragments were ligated using Gibson Assembly and nucleofected simultaneously with pSpCas9-2A-GFP-gRNA plasmid using the Amaxa Nucleofector (assay A-023). Forty-eight hours following electroporation, cells were collected, and GFP-positive cells sorted and single-cell seeded into 96-well plates using the SH800S Sony cell sorter. Individual clones were expanded and DNA was extracted for PCR amplification of the STMN2 Ex5 genomic locus using primers within NLuc and outside the STMN2 5′ homology arm to confirm presence of the insert. The entire STMN2 coding region and all exon-intron junctions (>500-bp length of each intronic region) were then sequenced to verify the absence of any additional DNA alteration. qPCR analysis was performed with a wild-type isogenic SH-SY5Y cell line that had undergone the mutagenesis attempt but not acquired the insertion mutation during the original screening process.
(§3) TDP-mut STMN2-NLuc SH-SY5Y cells were used in small-molecule screening at ICCB-Longwood. 3000 cells/well were plated in white 384-well plates using a 50 ul sample volume. 24 hours after plating, compounds were added using 100 nl pin transfer. 24 hours later, 25 ul NLuc assay was added to each well according to manufacturer instructions (Promega, Cat #). Plates were shaken for 1 min prior to luminescence readings using EnVision2 machine. DMSO-only and WT STMN2-NLuc cells were included as negative and positive controls respectively on each plate, producing an average Z′score of ~0.7 across the screen. Each library plate was conducted in duplicate, and Z-scores calculated for each compound. For subsequent validation experiments, cell numbers in each well were quantified by hoescht staining at 1 μg/ml for 15 mins at 37C in black, clear bottom plates, prior to imaging at 4× using automated microscopy (ImageXpressMicro). Nuclei were then counted using a custom algorithm, and luciferase assay run as above. Luminescence results were then normalised against cell counts as RLU/cell.
(§4) Each compound was tested in triplicate in log doses ranging 0.01 μM−10 μM. The values are represented in luminescence normalized to the number of cells in the well, wherein darker grey correlates to higher RLU per cell and higher STMN2 protein expression.

Assay [2] has as its system STMN2 (WT STMN2-NLuc SH-SY5Y cells). Description: STMN2 nanoluciferase assay in WT SH-SY5Y cells (Table A: WT TDP-32; Table B: WT HD Luciferase). The class given is cell-based, human. The conditions noted are these: Homo sapiens, SH-SY5Y, WT cell line; for maximal fold induction: Emax. The method, then: as §1, §2, §3, §4
Setting [3] is: Table B, read-out: EC50, mut HD Luciferase.
The mark [4] stands for this setting: Table B, read-out: EC50, WT HD Luciferase.
The mark [5] stands for this setting: Table A, read-out: EC50, mut TDP-43.
[6] abbreviates: Table A, read-out: EC50, WT TDP-32.

On to `Cc1csc2c(-c3ccc(F)cc3)c(CC[C@H](O)C[C@@H](O)CC(=O)O)c(C3CC3)nc12` [Example I-33, (3R,5S)-7-(5-cyclopropyl-7-(4-fluorophenyl)-3-methylthieno[3,2-b]pyridin-6-yl)-3,5-dihydroxyheptanoic acid], for which the pEC50 in assay [1] (setting [3]) and in assay [2] (setting [4]) was 6.30 to 7.00 throughout. Further, the “HD Luciferase (mut, Emax)” value in assay [1] (Table B) was “** (means≥1.25 and <1.5)”.
`O=C(O)C[C@H](O)C[C@H](O)/C=C/c1c(-c2ccc(F)cc2)cc(C23CC(C2)C3)nc1C1CC1` [II-16, (3R,5S,E)-7-(6-(bicyclo[1.1.1]pentan-1-yl)-2-cyclopropyl-4-(4-fluorophenyl)pyridin-3-yl)-3,5-dihydroxyhept-6-enoic acid]: the negative logarithm of the EC50 (pEC50) is 6.30 to 7.00 in assay [1] (setting [3]) and 7.00 to 7.30 in assay [2] (setting [4]). Moreover, the “HD Luciferase (mut, Emax)” value in assay [1] (Table B) is “** (means≥1.25 and <1.5)”.
Consider `O=C(O)C[C@H](O)C[C@H](O)/C=C/c1c(-c2ccc(F)cc2Cl)cc(C2CCC2)nc1C1CC1` [II-7, (3R,5S,E)-7-(4-(2-chloro-4-fluorophenyl)-6-cyclobutyl-2-cyclopropylpyridin-3-yl)-3,5-dihydroxyhept-6-enoic acid], for which the negative-log EC50 (pEC50) is 7.00 to 7.30 in assay [1] (setting [3]) and 7.30 to 8.00 in assay [2] (setting [4]).
The matching figures for `COCc1c(C2CC2)nc(C2CC2)c(/C=C/[C@@H](O)C[C@@H](O)CC(=O)O)c1-c1ccc(Cl)cc1F` [II-19, (3R,5S,E)-7-(4-(4-chloro-2-fluorophenyl)-2,6-dicyclopropyl-5-(methoxymethyl)pyridin-3-yl)-3,5-dihydroxyhept-6-enoic acid]: 7.30 to 8.00 and 7.30 to 8.00.
On to `Cc1cc(F)ccc1-c1cc(C2CC2)nc(C2CC2)c1/C=C/[C@@H](O)C[C@@H](O)CC(=O)O` [II-12, (3R,5S,E)-7-(2,6-dicyclopropyl-4-(4-fluoro-2-methylphenyl)pyridin-3-yl)-3,5-dihydroxyhept-6-enoic acid], for which the pEC50 in assay [1] (setting [3]) and in assay [2] (setting [4]) was not below 8.00 in each case.
Take `COCc1c(C2CC2)nc(C2CC2)c(/C=C/[C@@H](O)C[C@@H](O)CC(=O)O)c1-c1cc(Cl)ccc1F` [II-20, (3R,5S,E)-7-(4-(5-chloro-2-fluorophenyl)-2,6-dicyclopropyl-5-(methoxymethyl)pyridin-3-yl)-3,5-dihydroxyhept-6-enoic acid]: the negative-log EC50 (pEC50) in assay [1] (setting [3]) and in assay [2] (setting [4]) was 7.30 to 8.00 throughout. Besides, the maximal fold induction in assay [2] (Table B) was in the range of 1.25 to 1.5.
`Cc1csc2c(-c3ccc(F)cc3)c(/C=C/[C@@H](O)C[C@@H](O)CC(=O)O)c(C3CC3)nc12` [Example I-1, (3R,5S,E)-7-(5-cyclopropyl-7-(4-fluorophenyl)-3-methylthieno[3,2-b]pyridin-6-yl)-3,5-dihydroxyhept-6-enoic acid]: the pEC50 was not below 7.00 in assay [1] (setting [5]), not below 8.00 in assay [1] (setting [3]), not below 7.00 in assay [2] (setting [6]) and 7.30 to 8.00 in assay [2] (setting [4]). For the same compound, the maximal fold induction in assay [2] (Table B) is 1.5 to 1.75.
With `Cc1cc(F)ccc1-c1c(/C=C/[C@@H](O)C[C@@H](O)CC(=O)O)c(C2CC2)nc2c(C)csc12` [Example I-13, (3R,5S,E)-7-(5-cyclopropyl-7-(4-fluoro-2-methylphenyl)-3-methylthieno[3,2-b]pyridin-6-yl)-3,5-dihydroxyhept-6-enoic acid], the pEC50 in assay [1] (setting [3]) and in assay [2] (setting [4]) was 7.30 to 8.00 each time.
Turning to `O=C(O)C[C@H](O)C[C@H](O)/C=C/c1c(C2CC2)nc2ccccc2c1-c1ccc(F)cc1` [Pitavastatin, pitavastatin, reference compound], the negative-log EC50 (pEC50) in assay [1] (setting [5]) and in assay [2] (setting [6]) was 6.00 to 6.30 throughout.
Regarding `Cc1csc2nc(C3CC3)c(/C=C/[C@@H](O)C[C@@H](O)CC(=O)O)c(-c3ccc(Cl)cc3)c12` [Example I-34, (3R,5S,E)-7-(4-(4-chlorophenyl)-6-cyclopropyl-3-methylthieno[2,3-b]pyridin-5-yl)-3,5-dihydroxyhept-6-enoic acid], the pEC50 in assay [1] (setting [3]) is 7.00 to 7.30; in assay [2] (setting [4]), 6.30 to 7.00. Besides, the maximal fold induction in assay [2] (Table B) is 1.5 to 1.75.
